Literature values as cited in patent US20220202792A1, “METHODS AND COMPOSITIONS FOR TREATING CHRONIC INFLAMMATORY INJURY, METAPLASIA, DYSPLASIA AND CANCERS OF EPITHELIAL TISSUES” (University of Houston System, priority 2019, published 2022).

Molecular target: T1, JMJD2B (KDM4B) (Homo sapiens, UniProt O94953)
T1 sequence (O94953 1-1096): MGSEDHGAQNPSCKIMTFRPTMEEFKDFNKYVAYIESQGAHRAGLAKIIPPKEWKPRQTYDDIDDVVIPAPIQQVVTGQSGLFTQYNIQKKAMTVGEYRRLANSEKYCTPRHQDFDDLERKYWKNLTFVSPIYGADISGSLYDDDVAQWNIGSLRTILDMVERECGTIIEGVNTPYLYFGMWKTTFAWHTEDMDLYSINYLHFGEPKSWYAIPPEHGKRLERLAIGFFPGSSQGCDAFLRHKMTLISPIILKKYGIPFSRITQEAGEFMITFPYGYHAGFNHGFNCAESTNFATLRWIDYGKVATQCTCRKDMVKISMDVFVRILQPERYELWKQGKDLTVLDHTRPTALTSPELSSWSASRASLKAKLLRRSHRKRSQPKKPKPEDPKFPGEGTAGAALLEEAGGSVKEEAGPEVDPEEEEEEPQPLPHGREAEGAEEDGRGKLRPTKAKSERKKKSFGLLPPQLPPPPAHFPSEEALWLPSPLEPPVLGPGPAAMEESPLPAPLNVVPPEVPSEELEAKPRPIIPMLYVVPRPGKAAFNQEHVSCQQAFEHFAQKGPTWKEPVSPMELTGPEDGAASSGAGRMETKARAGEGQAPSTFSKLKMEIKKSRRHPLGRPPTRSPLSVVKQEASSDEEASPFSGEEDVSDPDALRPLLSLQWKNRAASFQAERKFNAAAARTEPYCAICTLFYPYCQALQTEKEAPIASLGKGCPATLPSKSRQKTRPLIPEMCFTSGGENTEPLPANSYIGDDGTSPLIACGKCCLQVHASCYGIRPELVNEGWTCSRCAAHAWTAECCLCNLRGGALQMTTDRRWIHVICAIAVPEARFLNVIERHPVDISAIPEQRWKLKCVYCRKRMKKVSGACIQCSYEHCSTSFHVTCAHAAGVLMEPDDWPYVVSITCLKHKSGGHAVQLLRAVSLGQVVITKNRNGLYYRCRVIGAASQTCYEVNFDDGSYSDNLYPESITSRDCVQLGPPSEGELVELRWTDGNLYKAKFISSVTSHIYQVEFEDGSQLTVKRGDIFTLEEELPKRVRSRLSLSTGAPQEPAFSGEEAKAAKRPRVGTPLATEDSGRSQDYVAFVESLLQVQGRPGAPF
Settings: demethylase activity in vitro; cited from earlier work

Q: With Clc1ccc(N/N=C(\c2ccccc2)c2ccccn2)nc1 [JIB04] as the molecule, how does the IC50 read?
A: ~440 nM
